According to PubChem BioAssay AID206 (DTP/NCI, 2004):
Several values for one entry are separate records, joined by “and”; a condition that tells them apart may be missing. Equal entries are not always repeated. Inconclusive results are not listed. Residues, ends and D or L forms follow the SMILES beside them. *: point of attachment. Trt = c1ccc(C(c2ccccc2)(c2ccccc2)*)cc1; Cbz = O=C(OCc1ccccc1)*

Test system: nude mice, HT29 intrarenal xenograft, tumor weight T/C
Experiment: NCI In Vivo Anticancer Drug Screen. Data for tumor model HT29;CX-1 Human Adenocarcinoma (MER+) (intrarenal inoculation) in NU/NU Swiss (nude) mice
Settings: endpoint: mean tumor weight change, higher = larger tumour
Method in brief: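 T/C = treated-group value ÷ vehicle-group value, using tumor size or survival.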

[1] = dose: 300.0 mg/kg/injection, schedule: Q04DX004 (sc), vehicle: saline with Tween-80
[2] = dose: 600.0 mg/kg/injection, schedule: Q04DX004 (sc), vehicle: saline with Tween-80
[3] = dose: 150.0 mg/kg/injection, schedule: Q04DX004 (sc), vehicle: Klucel (hydroxypropylcellulose) (HPC)
[4] = dose: 300.0 mg/kg/injection, schedule: Q04DX004 (sc), vehicle: Klucel (hydroxypropylcellulose) (HPC)
[5] = dose: 300.0 mg/kg/injection, schedule: Q04DX004 (sc), vehicle: suspension in saline
[6] = dose: 75.0 mg/kg/injection, schedule: Q04DX004 (sc), vehicle: saline with Tween-80
[7] = dose: 150.0 mg/kg/injection, schedule: Q04DX004 (sc), vehicle: saline with Tween-80
[8] = dose: 100.0 mg/kg/injection, schedule: Q01DX010 (sc), vehicle: saline
[9] = dose: 600.0 mg/kg/injection, schedule: Q04DX004 (sc), vehicle: Klucel (hydroxypropylcellulose) (HPC)
[10] = dose: 25.0 mg/kg/injection, schedule: Q01DX010 (sc), vehicle: saline
[11] = dose: 75.0 mg/kg/injection, schedule: Q04DX004 (sc), vehicle: suspension in saline
[12] = dose: 150.0 mg/kg/injection, schedule: Q04DX004 (sc), vehicle: suspension in saline

For O=C(Nc1nncs1)c1cccs1, the T/C (dose: 50.0 mg/kg/injection, schedule: Q04DX004 (sc), vehicle: saline with Tween-80) was 61 % of control, the T/C (dose: 100.0 mg/kg/injection, schedule: Q04DX004 (sc), vehicle: saline with Tween-80) was 93 % of control and the T/C (dose: 200.0 mg/kg/injection, schedule: Q04DX004 (sc), vehicle: saline with Tween-80) was 72 % of control. For the same compound, the T/C [1] was 106 % of control, the T/C (dose: 400.0 mg/kg/injection, schedule: Q04DX004 (sc), vehicle: saline with Tween-80) was 95 % of control and the T/C [2] was 121 % of control. The T/C (dose: 1200.0 mg/kg/injection, schedule: Q04DX004 (sc), vehicle: saline with Tween-80) was 110 % of control.
With C=Cc1cnc([N+](=O)[O-])n1C the T/C [3] was 110 % of control and the T/C [4] was 108 % of control.
In the case of N#CC(C#N)=C/C=C/c1cccc([N+](=O)[O-])c1, the T/C (dose: 100.0 mg/kg/injection, schedule: Q01DX010 (sc), vehicle: Klucel (hydroxypropylcellulose) (HPC)) is reported as 40 % of control, the T/C (dose: 200.0 mg/kg/injection, schedule: Q01DX010 (sc), vehicle: Klucel (hydroxypropylcellulose) (HPC)) is reported as 38 % of control and the T/C (dose: 400.0 mg/kg/injection, schedule: Q01DX010 (sc), vehicle: Klucel (hydroxypropylcellulose) (HPC)) is reported as 74 % of control. The T/C (dose: 800.0 mg/kg/injection, schedule: Q01DX010 (sc), vehicle: Klucel (hydroxypropylcellulose) (HPC)) was 61 % of control.
In the case of COCC(O)Cn1ccnc1[N+](=O)[O-] (configuration not stated), the T/C [5] is reported as 86 % of control, the T/C (dose: 600.0 mg/kg/injection, schedule: Q04DX004 (sc), vehicle: suspension in saline) is reported as 80 % of control and the T/C (dose: 1200.0 mg/kg/injection, schedule: Q04DX004 (sc), vehicle: suspension in saline) is reported as 75 % of control.
With CC(=Nc1ccccc1)C1=C(O)C(Cc2ccccc2)NC1=O (configuration not stated) the T/C [6] was 66 % of control, the T/C [7] was 105 % of control and the T/C [1] was 43 % of control. The T/C [2] was 80 % of control.
In the case of CC1(C)N=C(N)N=C(N)N1c1ccc(CCCCc2ccc(S(=O)(=O)F)cc2Cl)c(Cl)c1, the T/C (dose: 12.5 mg/kg/injection, schedule: Q01DX010 (sc), vehicle: saline) is reported as 84 % of control and 100 % of control, the T/C (dose: 50.0 mg/kg/injection, schedule: Q01DX010 (sc), vehicle: saline) is reported as 98 % of control and the T/C [8] is reported as 81 % of control.
For O=c1[nH]c(=O)n(C2CC(O)C(CO)O2)cc1Br (configuration not stated), the T/C [9] was 157 % of control, the T/C (dose: 1200.0 mg/kg/injection, schedule: Q04DX004 (sc), vehicle: Klucel (hydroxypropylcellulose) (HPC)) was 91 % of control and the T/C (dose: 2400.0 mg/kg/injection, schedule: Q04DX004 (sc), vehicle: Klucel (hydroxypropylcellulose) (HPC)) was 59 % of control.
With CC1=C2CC(C)(C)/C=C\C(=O)/C(C)=C\C3=C[C@H](C)C[C@]3(O2)C1=O the T/C (dose: 50.0 mg/kg/injection, schedule: Q01DX010 (sc), vehicle: Klucel (hydroxypropylcellulose) (HPC)) was 49 % of control.
CCC[CH2][Hg][Cl] was tested, and the T/C (dose: 9.38 mg/kg/injection, schedule: Q04DX004 (sc), vehicle: Klucel (hydroxypropylcellulose) (HPC)) was 83 % of control, the T/C (dose: 18.75 mg/kg/injection, schedule: Q04DX004 (sc), vehicle: Klucel (hydroxypropylcellulose) (HPC)) was 72 % of control and the T/C (dose: 37.5 mg/kg/injection, schedule: Q04DX004 (sc), vehicle: Klucel (hydroxypropylcellulose) (HPC)) was 45 % of control.
In the case of O=C[C@@H](CO)O[C@H](C=O)n1cnc2c(=O)[nH]cnc21, the T/C (dose: 225.0 mg/kg/injection, schedule: Q04DX004 (sc), vehicle: saline) is reported as 76 % of control, the T/C (dose: 450.0 mg/kg/injection, schedule: Q04DX004 (sc), vehicle: saline) is reported as 86 % of control and the T/C (dose: 900.0 mg/kg/injection, schedule: Q04DX004 (sc), vehicle: saline) is reported as 93 % of control.
With COc1ccc([I+]c2cccc(Cl)c2)cc1Cl the T/C (dose: 37.5 mg/kg/injection, schedule: Q04DX004 (sc), vehicle: saline with Tween-80) was 67 % of control, the T/C [6] was 48 % of control and the T/C [7] was 58 % of control. For the same compound, the T/C [1] was 39 % of control and the T/C [2] was 64 % of control.
In the case of CCCCCCCC(=O)N/N=C(\CO)[C@]1(O)Cc2c(O)c3c(c(O)c2[C@@H](OC2CC(N)C(O)C(C)O2)C1)C(=O)c1c(OC)cccc1C3=O (some centres not stated), the T/C (dose: 31.25 mg/kg/injection, schedule: Q04DX004 (sc), vehicle: water) is reported as 2 % of control, the T/C (dose: 32.5 mg/kg/injection, schedule: Q04DX004 (sc), vehicle: water) is reported as 102 % of control and the T/C (dose: 62.5 mg/kg/injection, schedule: Q04DX004 (sc), vehicle: water) is reported as 51 % of control. The T/C (dose: 65.0 mg/kg/injection, schedule: Q04DX004 (sc), vehicle: water) was 34 % of control, the T/C (dose: 130.0 mg/kg/injection, schedule: Q04DX004 (sc), vehicle: water) was 46 % of control and the T/C (dose: 250.0 mg/kg/injection, schedule: Q04DX004 (sc), vehicle: water) was 10 % of control. For the same compound, the T/C (dose: 260.0 mg/kg/injection, schedule: Q04DX004 (sc), vehicle: water) was 19 % of control.
In the case of c1cc(-c2cc3ccc(C4=NCCN4)cc3[nH]2)ccc1C1=NCCN1, the T/C (dose: 25.0 mg/kg/injection, schedule: Q04DX004 (sc), vehicle: saline) is reported as 84 % of control, the T/C (dose: 50.0 mg/kg/injection, schedule: Q04DX004 (sc), vehicle: saline) is reported as 154 % of control and the T/C (dose: 100.0 mg/kg/injection, schedule: Q04DX004 (sc), vehicle: saline) is reported as 124 % of control.
In the case of C=CC(=O)NCNC(=O)C=C, the T/C [10] is reported as 217 % of control and 220 % of control and the T/C [8] is reported as 213 % of control.
With C=C1CC2(OC1=O)C(=O)N(C)c1ccc(I)cc12 (configuration not stated) the T/C (dose: 37.5 mg/kg/injection, schedule: Q04DX004 (sc), vehicle: suspension in saline) was 80 % of control, the T/C [11] was 71 % of control and the T/C [12] was 81 % of control.
COC(=O)C(CSC(c1ccccc1)(c1ccccc1)c1ccccc1)NC(=O)C(CC(N)=O)NC(=O)OCc1ccccc1 (stereo not drawn) (Cbz-Asn-Cys(Trt)-OMe; configuration not given here) was tested, and the T/C (dose: 150.0 mg/kg/injection, schedule: Q04DX004 (sc), vehicle: distilled water + Tween-80) was 63 % of control, the T/C (dose: 300.0 mg/kg/injection, schedule: Q04DX004 (sc), vehicle: distilled water + Tween-80) was 69 % of control and the T/C (dose: 600.0 mg/kg/injection, schedule: Q04DX004 (sc), vehicle: distilled water + Tween-80) was 81 % of control. The T/C (dose: 1200.0 mg/kg/injection, schedule: Q04DX004 (sc), vehicle: distilled water + Tween-80) was 83 % of control.
In the case of COC1C(OC(=O)/C=C/C=C/C=C/C=C/C(=O)O)CCC2(CO2)C1C1(C)OC1CC=C(C)C (configuration not stated), the T/C (dose: 75.0 mg/kg/injection, schedule: Q04DX004 (sc), vehicle: saline) is reported as 104 % of control, the T/C (dose: 150.0 mg/kg/injection, schedule: Q04DX004 (sc), vehicle: saline) is reported as 96 % of control and the T/C (dose: 300.0 mg/kg/injection, schedule: Q04DX004 (sc), vehicle: saline) is reported as 119 % of control.
For O=C(CC(=O)C(F)(F)F)c1csc2ccccc12, the T/C [3] was 116 % of control, the T/C [4] was 73 % of control and the T/C [9] was 87 % of control.
COC1/C=C/O[C@@]2(C)Oc3c(C)c(O)c4c(O)c(cc(O)c4c3C2=O)NC(=O)/C(C)=C\C=C\[C@H](C)C(O)[C@@H](C)[C@@H](O)[C@@H](C)[C@H](OC(C)=O)[C@@H]1C (some centres not stated) was tested, and the T/C [12] was 72 % of control and the T/C [5] was 69 % of control.
In the case of O=C1NCC(Br)C(=O)N1 (configuration not stated), the T/C [7] is reported as 68 % of control, the T/C [1] is reported as 50 % of control and the T/C [2] is reported as 60 % of control.
COc1cccc2c1C(=O)c1c(O)c3c(c(O)c1C2=O)C[C@@](O)(C(C)=O)C[C@@H]3OC1CC(N)C(O)C(C)O1 (some centres not stated) was tested, and the T/C (dose: 1.0 mg/kg/injection, schedule: Q01DX010 (sc), vehicle: saline) was 159 % of control.
For COC1N(C2CC(O)C(CO)O2)C(=O)NC(=O)C1(F)Br (configuration not stated), the T/C [10] was 28 % of control.
COC1=C(N)C(=O)c2nc(-c3nc(C(=O)O)c(C)c(-c4ccc(OC)c(OC)c4O)c3N)ccc2C1=O was tested, and the T/C (dose: 0.13 mg/kg/injection, schedule: Q01DX010 (sc), vehicle: saline) was -33 % of control and the T/C (dose: 0.5 mg/kg/injection, schedule: Q01DX010 (sc), vehicle: saline) was -10 % of control.
For CCN(Cc1ccc(Cl)c(Cl)c1)c1ccc2nc(N)nc(N)c2c1C, the T/C (dose: 9.38 mg/kg/injection, schedule: Q04DX004 (sc), vehicle: distilled water + Tween-80) was 44 % of control, the T/C (dose: 18.75 mg/kg/injection, schedule: Q04DX004 (sc), vehicle: distilled water + Tween-80) was 54 % of control and the T/C (dose: 37.5 mg/kg/injection, schedule: Q04DX004 (sc), vehicle: distilled water + Tween-80) was 93 % of control. For the same compound, the T/C (dose: 75.0 mg/kg/injection, schedule: Q04DX004 (sc), vehicle: distilled water + Tween-80) was 47 % of control.
In the case of Nc1ncnc2c(C3OC(CO)C(O)C3O)[nH]nc12 (configuration not stated), the T/C [11] is reported as 39 % of control.
